Laboratory results from patent publication US11656221B2, “Methods to identify modulators of actin-binding proteins” (Regents of the University of Minnesota, priority 2019, dated 2023).
“Also recorded” adds a separate entry of the source.

What was measured:
ABD-L253P = biological target: T1, ABD-L253P (Homo sapiens, UniProt O15020, L253P); assay: Sedimentation of ABD L253P without actin (aggregation); conditions: 1.6 μM
T1 construct: His-SUMO (cleaved yes); made in house; host or cells: E. coli BL21(DE3), pE-SUMOpro
T1 sequence (O15020 1-284 L253P): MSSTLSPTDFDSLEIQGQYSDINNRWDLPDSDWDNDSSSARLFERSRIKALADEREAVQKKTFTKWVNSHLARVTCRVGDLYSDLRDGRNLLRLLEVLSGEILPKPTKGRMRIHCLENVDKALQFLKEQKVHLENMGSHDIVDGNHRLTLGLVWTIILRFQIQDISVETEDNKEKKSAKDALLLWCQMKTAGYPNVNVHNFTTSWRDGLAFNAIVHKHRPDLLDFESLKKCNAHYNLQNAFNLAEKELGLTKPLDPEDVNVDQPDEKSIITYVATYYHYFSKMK
Description: (§1) F-actin and ABD binding assays were performed as previously described. In brief, binding assays used 1 μM ABD protein, 1 μM F-actin and 1-50 μM compound (as indicated) or DMSO control for a total reaction volume of 60 μL in F-buffer containing 10 mM Tris, pH 7.5, 150 mM NaCl, 0.5 mM ATP, 2 mM MgCl2, and 1 mM DTT. Following 30 min incubation at room temperature (21° C.). F-actin was pelleted using centrifugation at 100,000×g at 25° C. for 30 min. Unbound ABD in the supernatant was measured following SDS-PAGE and Coomassie blue staining in accord. In addition, control co-sedimentations assays that lacked actin were performed to test if compounds cause ABD aggregation. F-actin and Lifeact-mCherry binding assays were undertaken with 2 μM Lifeact-mCherry, 30 μM F-actin and 1-50 μM compound (as indicated) or DMSO control for a total reaction volume of 80 μL in F-buffer. For a no-actin binding control, an assay sample with no F-actin was also set up. Binding reactions were allowed to reach equilibrium at room temperature (21° C.) for 30 min and then F-actin was pelleted by centrifugation at 100,000×g at 25° C. for 30 min. The amount of unbound Lifeact-mCherry was sampled by loading 7 μL of spin supernatant on a low volume black bottom 384-well plate (Greiner). Amount of mCherry was determined by acquiring fluorescence spectrum peak intensity at ˜600 nm using a spectral unmixing plate reader (Fluorescence Innovations, Inc) equipped with a 532 nm laser (Laserglow Technologies, Ontario, Canada) for excitation, 532 nm longpass filter for emission, and PMT for emission detection. The fraction of Lifeact-mCherry bound to F-actin was determined by subtracting from one the fraction of supernatant fluorescence intensity relative to the no-actin control sample, using the following equation: […]
In addition to a reduction in cell viability, the primary and counter screen may be sensitive to compounds that promote ABD-L253P protein aggregation. […] Our ABD-L253P to actin co-sedimentation assay is unlikely to be sensitive to ABD aggregation, as it is set up to monitor maximal sedimentation of ABD-L253P with actin at ˜90% ABD-L253P co-sedimenting. To directly measure the impact of 10 μM Hit compounds on ABD aggregation, we repeated the ABD-actin co-sedimentation without actin present.

[1] = biological target: T2, ABD-L253P (L253P β-III-spectrin ABD) binding to F-actin (Homo sapiens, UniProt O15020, L253P); assay: F-actin and ABD co-sedimentation assay; conditions: 3 μM, 1 μM ABD, 1 μM F-actin
T2 construct: His-SUMO (cleaved yes); made in house; host or cells: E. coli BL21(DE3), pE-SUMOpro; actin from rabbit psoas muscle
T2 sequence (O15020 1-284 L253P): as above
Description: (§2) Actin was purified from acetone powder derived from the psoas muscle of New Zealand white rabbit (Oryctolagus cuniculus). Filamentous (F)-actin was stored for up to 3 days on ice before use in binding assays. Within an hour of the binding assay, the F-actin was clarified at 100,000×g at 4° C. for 10 min prior to setting up binding assays. The L253P β-III-spectrin ABD was expressed in E. coli BL21(DE3) (Novagen). The ABD was purified and the His-SUMO tag proteolytically removed, as previously described, except size-exclusion chromatography was not performed due to the high purity of the ABD protein. Lifeact-mCherry protein was similarly prepared. A Bradford assay was performed to determine clarified F-actin and ABD protein concentrations.
as §1, with “F-actin and Lifeact-mCherry binding assays were undertaken with 2 μM Lifeact-mCherry, 30 μM F-actin and 1-50 μM compound (as indicated) or DMSO control for a total reaction volume of 80 μL in F-buffer. For a no-actin binding control, an assay sample with no F-actin was also set up. Binding reactions were allowed to reach equilibrium at room temperature (21° C.) for 30 min and then F-actin was pelleted by centrifugation at 100,000×g at 25° C. for 30 min. The amount of unbound Lifeact-mCherry was sampled by loading 7 μL of spin supernatant on a low volume black bottom 384-well plate (Greiner).” left out

[2] = biological target: T3, Lifeact-mCherry binding to F-actin (Oryctolagus cuniculus, UniProt P68135); assay: F-actin and Lifeact-mCherry co-sedimentation assay; design: species or system New Zealand white rabbit (Oryctolagus cuniculus); conditions: 3 μM, 2 μM Lifeact-mCherry, 30 μM F-actin
T3 construct: Actin was purified from acetone powder derived from the psoas muscle; made in house; host or cells: actin from rabbit psoas muscle; Lifeact-mCherry from E. coli, pE-SUMOpro
Description: as §2
F-actin and ABD binding assays were performed as previously described. In brief, binding assays used 1 μM ABD protein, 1 μM F-actin and 1-50 μM compound (as indicated) or DMSO control for a total reaction volume of 60 μL in F-buffer containing 10 mM Tris, pH 7.5, 150 mM NaCl, 0.5 mM ATP, 2 mM MgCl2, and 1 mM DTT. Following 30 min incubation at room temperature (21° C.). F-actin was pelleted using centrifugation at 100,000×g at 25° C. for 30 min. Unbound ABD in the supernatant was measured following SDS-PAGE and Coomassie blue staining in accord. In addition, control co-sedimentations assays that lacked actin were performed to test if compounds cause ABD aggregation. F-actin and Lifeact-mCherry binding assays were undertaken with 2 μM Lifeact-mCherry, 30 μM F-actin and 1-50 μM compound (as indicated) or DMSO control for a total reaction volume of 80 μL in F-buffer. For a no-actin binding control, an assay sample with no F-actin was also set up. Binding reactions were allowed to reach equilibrium at room temperature (21° C.) for 30 min and then F-actin was pelleted by centrifugation at 100,000×g at 25° C. for 30 min. The amount of unbound Lifeact-mCherry was sampled by loading 7 μL of spin supernatant on a low volume black bottom 384-well plate (Greiner). Amount of mCherry was determined by acquiring fluorescence spectrum peak intensity at ˜600 nm using a spectral unmixing plate reader (Fluorescence Innovations, Inc) equipped with a 532 nm laser (Laserglow Technologies, Ontario, Canada) for excitation, 532 nm longpass filter for emission, and PMT for emission detection. The fraction of Lifeact-mCherry bound to F-actin was determined by subtracting from one the fraction of supernatant fluorescence intensity relative to the no-actin control sample, using the following equation:
[formula] • Where Fcontrol/DMSO is the peak mCherry fluorescence of assay samples containing compound or DMSO control, and Fno-actin is the peak mCherry fluorescence of assay samples that contained no F-actin. 2.9 Trypan Blue Cell Viability Assays

actin = actin sedimentation assay; read-out: previously reported affinity value; cited from earlier work
[3] = biological target: T4, ternary complex consisting of GFP-ABD-L253P, Lifeact-mCherry, and actin (Homo sapiens, UniProt O15020, L253P); assay: Primary live-cell time-resolved FRET assay (GFP-ABD-L253P plus Lifeact-mCherry); format: cell-based; conditions: 12-point concentration response 0.01 to 30 μM, 1536-well plates, average of 3 plates; read-out: EC50 of FRET reduction
T4 construct: L252P β-III-spectrin (human) ABD residues 1-284; expressed in transfected cells; host or cells: HEK293-6E, pTT5 vector, transient
T4 sequence (O15020 1-284 L253P, one chain of several): as the sequence (O15020 1-284 L253P) above

Q: With CO[C@H]1C[C@H](CC[C@H](C)[C@H](O)[C@H](C)[C@H]2OC(=O)/C=C/C(C)=C/C[C@H](O)C[C@@H]3C=CC[C@@H](C[C@H](OC)[C@@H](C)[C@@H](O)C[C@@H](O)[C@H](C)[C@@H]([C@@H](C)[C@@H](O)[C@@H](C)CC[C@H]4C[C@H](OC)C[C@H](C)O4)OC(=O)/C=C/C(C)=C/C[C@H](O)C[C@@H]4C=CC[C@@H](C[C@H](OC)[C@@H](C)[C@@H](O)C[C@@H](O)[C@@H]2C)O4)O3)O[C@@H](C)C1 [swinholide A] as the compound, how does the “ABD sedimentation without actin” value (ABD-L253P) read?
A: Its value is “does not alter ABD sedimentation”.

Q: What about the “effect on ABD-L253P binding to actin” value [1] of the same compound?
A: Its value is “did reduce; also recorded: ablation”.

Q: And the “effect on ABD-L253P binding to actin” value ([1]; listed as swiholide A)?
A: The value was “reduce ABD-L253P binding to actin”.

Q: What about the “effect on Lifeact-mCherry binding with actin” value [2] of the same compound?
A: The value was “did reduce; also recorded: reduce Lifeact-mCherry binding with actin”.

Q: What about the Kd (actin) of the same compound?
A: Its Kd is 0.05 µM.

Q: And the EC50 [3]?
A: Its EC50 is 0.264 µM.
